Reference: PMC3854790, “CRIS—A Novel cAMP-Binding Protein Controlling Spermiogenesis and the Development of Flagellar Bending” (PLoS Genetics, 2013)

Biological target: T1, mCRIS CNBD (cit-mCNBD-cer FRET sensor) (Mus musculus, UniProt Q9D5U8)
T1 construct: gene Cnbd2; CNBD, aa 202-353 of mCRIS cDNA from mouse testis; citrine at N terminus, cerulean-His10 at C terminus (also printed cer-mCNBD-cit); expressed in CHO cells
Experiment: intramolecular FRET (cerulean/citrine ratio), live-cell imaging
Assay type: cell-based
Details: 3 mM 8-Br-cAMP perfused on CHO cells, 10 min

T1 sequence (Q9D5U8 202-353): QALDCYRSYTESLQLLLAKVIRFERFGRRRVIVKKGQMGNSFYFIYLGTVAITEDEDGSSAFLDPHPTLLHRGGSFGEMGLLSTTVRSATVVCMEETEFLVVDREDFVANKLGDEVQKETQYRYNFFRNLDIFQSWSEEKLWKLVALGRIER

`Nc1ncnc2c1nc(Br)n2[C@@H]1O[C@@H]2COP(=O)(O)O[C@H]2[C@H]1O` [8-Br-cAMP] was tested, and the “change in FRET (normalized emission ratio)” value was “Addition of 8-Br-cAMP, a membrane-permeable cAMP analogue, or NKH477, an activator of adenylyl cyclases, changed”.
